Data taken from ChEMBL document CHEMBL1201862, “PubChem BioAssay data set” (2004).
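Method: 48-hour compound exposure of cells in 96-well plates, five concentrations, linear interpolation of endpoints. GI50 = concentration required for 50% inhibition of growth.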 The source made the active and inactive calls. No stated cut-off is given here; in the data, active = GI50 up to about 1.1 µM and inactive = higher.

Columns and labels:
Experiment in all cases: NCI anticancer screen, dose series, 48 h
HL-60 = tested on: HL-60
A549 = tested on: A549
HOP-92 = tested on: HOP-92
SF-539 = tested on: SF-539
KM12 = tested on: KM12
NCI-H23 = tested on: NCI-H23
SF-295 = tested on: SF-295
UACC-257 = tested on: UACC-257
NCI-H460 = tested on: NCI-H460
SW-620 = tested on: SW-620
SK-OV-3 = tested on: SK-OV-3
IGROV-1 = tested on: IGROV-1
EKVX = tested on: EKVX
HOP-62 = tested on: HOP-62
SNB-75 = tested on: SNB-75
HCT-116 = tested on: HCT-116
SK-MEL-2 = tested on: SK-MEL-2
K562 = tested on: K562
OVCAR-4 = tested on: OVCAR-4
SK-MEL-28 = tested on: SK-MEL-28

Which results are given for `Oc1ccc2ccccc2c1/N=N/c1cccc2ccccc12`?
GI50 (HL-60): > 100 µM (inactive); GI50 (A549): > 100 µM (inactive); GI50 (HOP-92): > 100 µM (inactive); GI50 (SF-539): 24.3 µM (inactive); GI50 (KM12): > 100 µM (inactive); GI50 (NCI-H23): > 100 µM (inactive); GI50 (SF-295): > 100 µM (inactive); GI50 (UACC-257): > 100 µM (inactive); GI50 (NCI-H460): > 100 µM (inactive); GI50 (SW-620): > 100 µM (inactive); GI50 (SK-OV-3): 52.6 µM (inactive); GI50 (IGROV-1): 49.9 µM (inactive); GI50 (EKVX): 84.9 µM (inactive); GI50 (HOP-62): 48.5 µM (inactive); GI50 (SNB-75): 23.6 µM (inactive); GI50 (HCT-116): > 100 µM (inactive); GI50 (SK-MEL-2): > 100 µM (inactive); GI50 (K562): > 100 µM (inactive); GI50 (OVCAR-4): > 100 µM (inactive)

Which results are given for `CC1(C)O[C@@H](C[C@]2(C#N)C[C@H](CCl)OC(C)(C)O2)C[C@@H](C#N)O1`?
GI50 (HL-60): > 100 µM (inactive); GI50 (A549): > 100 µM (inactive); GI50 (HOP-92): 78.9 µM (inactive); GI50 (SF-539): > 100 µM (inactive); GI50 (KM12): > 100 µM (inactive); GI50 (NCI-H23): > 100 µM (inactive); GI50 (SF-295): > 100 µM (inactive); GI50 (UACC-257): > 100 µM (inactive); GI50 (NCI-H460): > 100 µM (inactive); GI50 (SW-620): > 100 µM (inactive); GI50 (SK-OV-3): > 100 µM (inactive); GI50 (IGROV-1): > 100 µM (inactive); GI50 (EKVX): > 100 µM (inactive); GI50 (HOP-62): > 100 µM (inactive); GI50 (SNB-75): > 100 µM (inactive); GI50 (HCT-116): > 100 µM (inactive); GI50 (SK-MEL-2): > 100 µM (inactive); GI50 (SK-MEL-28): > 100 µM (inactive); GI50 (K562): > 100 µM (inactive); GI50 (OVCAR-4): > 100 µM (inactive)

With `O=C1C(=O)c2ccccc2C=C1[N+](=O)[O-]` as the compound, how does the GI50 (HL-60) read?
Its GI50 is 22.7 µM (inactive).

What about the GI50 (A549) of the same compound?
The GI50 was > 100 µM (inactive).

What about the GI50 (HOP-92) of the same compound?
Its GI50 is 55.8 µM (inactive).

What about the GI50 (SF-539) of the same compound?
Its GI50 is 43.1 µM (inactive).

And the GI50 (KM12)?
Its GI50 is 70.3 µM (inactive).

What about the GI50 (NCI-H23) of the same compound?
The GI50 was 34.2 µM (inactive).

What about the GI50 (SF-295) of the same compound?
Its GI50 is 97.3 µM (inactive).

And the GI50 (UACC-257)?
Its GI50 is 25.2 µM (inactive).

What about the GI50 (NCI-H460) of the same compound?
The GI50 was 30.2 µM (inactive).

And the GI50 (SW-620)?
The GI50 was 32.9 µM (inactive).

What about the GI50 (SK-OV-3) of the same compound?
Its GI50 is > 100 µM (inactive).

What about the GI50 (IGROV-1) of the same compound?
Its GI50 is 13.8 µM (inactive).

And the GI50 (EKVX)?
The GI50 was 19.3 µM (inactive).

And the GI50 (HOP-62)?
Its GI50 is > 100 µM (inactive).

And the GI50 (SNB-75)?
Its GI50 is > 100 µM (inactive).

And the GI50 (HCT-116)?
Its GI50 is 26.2 µM (inactive).

What about the GI50 (SK-MEL-2) of the same compound?
The GI50 was 28.2 µM (inactive).

What about the GI50 (SK-MEL-28) of the same compound?
The GI50 was > 100 µM (inactive).

What about the GI50 (K562) of the same compound?
Its GI50 is 53.5 µM (inactive).

And the GI50 (OVCAR-4)?
The GI50 was 31.3 µM (inactive).

With `C=C1C[C@@H]2C[C@@H](C)CC(O)[C@]2(CCCN)C1O` (some centres not stated) as the compound, how does the GI50 (HL-60) read?
The GI50 was > 100 µM (inactive).

And the GI50 (A549)?
Its GI50 is > 100 µM (inactive).

What about the GI50 (HOP-92) of the same compound?
The GI50 was > 100 µM (inactive).

What about the GI50 (SF-539) of the same compound?
The GI50 was > 100 µM (inactive).

And the GI50 (KM12)?
The GI50 was > 100 µM (inactive).

And the GI50 (NCI-H23)?
The GI50 was > 100 µM (inactive).

What about the GI50 (SF-295) of the same compound?
Its GI50 is > 100 µM (inactive).

What about the GI50 (UACC-257) of the same compound?
The GI50 was > 100 µM (inactive).

What about the GI50 (NCI-H460) of the same compound?
The GI50 was > 100 µM (inactive).

And the GI50 (SW-620)?
The GI50 was > 100 µM (inactive).

What about the GI50 (SK-OV-3) of the same compound?
The GI50 was > 100 µM (inactive).

What about the GI50 (IGROV-1) of the same compound?
The GI50 was > 100 µM (inactive).

What about the GI50 (EKVX) of the same compound?
Its GI50 is > 100 µM (inactive).

And the GI50 (HOP-62)?
Its GI50 is > 100 µM (inactive).

And the GI50 (SNB-75)?
The GI50 was > 100 µM (inactive).

What about the GI50 (HCT-116) of the same compound?
The GI50 was > 100 µM (inactive).

What about the GI50 (SK-MEL-2) of the same compound?
Its GI50 is > 100 µM (inactive).

What about the GI50 (SK-MEL-28) of the same compound?
The GI50 was > 100 µM (inactive).

And the GI50 (K562)?
The GI50 was > 100 µM (inactive).

What about the GI50 (OVCAR-4) of the same compound?
Its GI50 is > 100 µM (inactive).

What does the source list for `O=C1CNc2cc(N3CCCCC3)ccc2N1`?
GI50 (HL-60): > 100 µM (inactive); GI50 (A549): > 100 µM (inactive); GI50 (HOP-92): > 100 µM (inactive); GI50 (SF-539): > 100 µM (inactive); GI50 (KM12): 49.4 µM (inactive); GI50 (NCI-H23): > 100 µM (inactive); GI50 (SF-295): > 100 µM (inactive); GI50 (UACC-257): > 100 µM (inactive); GI50 (NCI-H460): > 100 µM (inactive); GI50 (SW-620): > 100 µM (inactive); GI50 (SK-OV-3): > 100 µM (inactive); GI50 (IGROV-1): 13.9 µM (inactive); GI50 (EKVX): 21.2 µM (inactive); GI50 (HOP-62): > 100 µM (inactive); GI50 (SNB-75): 66.2 µM (inactive); GI50 (SK-MEL-2): > 100 µM (inactive); GI50 (SK-MEL-28): > 100 µM (inactive); GI50 (K562): > 100 µM (inactive); GI50 (OVCAR-4): > 100 µM (inactive)

What does the source list for `COc1cc(O)cc(/C=C/c2ccc(O)cc2)c1`?
GI50 (HL-60): 27.2 µM (inactive); GI50 (A549): 27.7 µM (inactive); GI50 (HOP-92): 21.6 µM (inactive); GI50 (SF-539): 35.6 µM (inactive); GI50 (KM12): 25.4 µM (inactive); GI50 (NCI-H23): 26.7 µM (inactive); GI50 (SF-295): 25.7 µM (inactive); GI50 (UACC-257): 40.8 µM (inactive); GI50 (NCI-H460): 44.7 µM (inactive); GI50 (SW-620): 48.8 µM (inactive); GI50 (SK-OV-3): > 100 µM (inactive); GI50 (IGROV-1): 53.3 µM (inactive); GI50 (EKVX): 28.4 µM (inactive); GI50 (HOP-62): 28.8 µM (inactive); GI50 (SNB-75): 90.4 µM (inactive); GI50 (HCT-116): 32 µM (inactive); GI50 (SK-MEL-2): 52.7 µM (inactive); GI50 (SK-MEL-28): > 100 µM (inactive); GI50 (K562): 28.2 µM (inactive); GI50 (OVCAR-4): 44.6 µM (inactive)

Which GI50 (HL-60) does the source give for `C=C(C)C(=O)O[C@H]1CC2=C[C@@H](C[C@@]3(C)O[C@@H]3[C@H]3OC(=O)C(=C)[C@@H]31)OC2=O` [ELEPHANTOPIN] here?
The GI50 was 0.486 µM (active).

And the GI50 (A549)?
The GI50 was 7.33 µM (inactive).

And the GI50 (HOP-92)?
Its GI50 is 1.13 µM (inactive).

And the GI50 (SF-539)?
Its GI50 is 3.57 µM (inactive).

And the GI50 (KM12)?
Its GI50 is 3.31 µM (inactive).

And the GI50 (NCI-H23)?
The GI50 was 1.87 µM (inactive).

And the GI50 (SF-295)?
Its GI50 is 5.57 µM (inactive).

What about the GI50 (UACC-257) of the same compound?
The GI50 was 1.85 µM (inactive).

And the GI50 (NCI-H460)?
Its GI50 is 4.86 µM (inactive).

And the GI50 (SW-620)?
Its GI50 is 0.695 µM (active).

And the GI50 (SK-OV-3)?
The GI50 was 11.5 µM (inactive).

What about the GI50 (IGROV-1) of the same compound?
Its GI50 is 4.65 µM (inactive).

What about the GI50 (EKVX) of the same compound?
The GI50 was 2.08 µM (inactive).

What about the GI50 (HOP-62) of the same compound?
The GI50 was 52.5 µM (inactive).

What about the GI50 (SNB-75) of the same compound?
The GI50 was 7.98 µM (inactive).

What about the GI50 (HCT-116) of the same compound?
Its GI50 is 1.16 µM (inactive).

What about the GI50 (SK-MEL-2) of the same compound?
Its GI50 is 4.34 µM (inactive).

What about the GI50 (SK-MEL-28) of the same compound?
Its GI50 is 1.71 µM (inactive).

And the GI50 (OVCAR-4)?
The GI50 was 2.61 µM (inactive).
